Measurements published in patent US20240025906A1 (NEURON23, INC., priority 2022, published 2024).
Read-outs that look alike come from different tables or passages of the source.

Assays:
[1] = system: JAK1/TYK2 pSTAT5 (Tyr694/699) in THP-1 cell line; test: IFNa-stimulated JAK1/TYK2 pSTAT5 (Tyr694/699) inhibition cellular assay, AlphaLISA; format: cell-based; conditions: THP-1 cells, AlphaLISA (Assay B)
Summary of the method: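 pSTAT5 (Tyr694/699) in lysates quantified by AlphaLISA (615 nm) after 30 min IFNa stimulation (100 ng/mL stock) of THP-1 cells. The cells, 2e4 per well in HBSS, had first been exposed 1 h at 37° C. to eight 6-fold compound dilutions, 10000 down to 0.04 nM final. IC50 fitted by 4PL regression, bottom 0, Hill slope −1.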

TYK2 JH2 = target: T1, TYK2 JH2 (Homo sapiens, UniProt P29597); test: TYK2 JH2 binding assay (KINOMEscan KdELECT competitive binding); conditions: TYK2 JH2 domain
T1 construct: purchased DiscoverX (KINOMEscan KdELECT service); host or cells: E. coli BL21-derived (T7 phage display) or HEK-293
Summary of the method: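 JH2-domain fragment, expressed as T7 phage tag in BL21-derived E. coli or DNA-tagged from HEK-293, competed with test compound against bead-immobilized biotinylated ligand in binding buffer (0.9% DMSO). 1 h shaking at room temperature; bound kinase eluted with 0.5 μM free ligand and quantified by qPCR. Kd from 11-point 3-fold dilutions.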

[2] = Homo sapiens, IFNa-stimulated, read-out: Cellular_THP1_IFNa-pSTATS_TYK2
[3] = KINOMEscan KdELECT (Assay A), read-out: Biochemical TYK2_DiscoverX_JH2_BND_Kd
[4] = DiscoverX KINOMEscan KdELECT (Assay A), read-out: Biochemical TYK2_DiscoverX_JH2_BND_Kd
[5] = Homo sapiens, IFNa-stimulated, read-out: Cellular THP1_IFNa-pSTATS_IC50
[6] = KINOMEscan KdELECT (Assay A), read-out: Biochemical TYK2_JH2_Kd

T1 sequence (P29597 589-875 limits assumed): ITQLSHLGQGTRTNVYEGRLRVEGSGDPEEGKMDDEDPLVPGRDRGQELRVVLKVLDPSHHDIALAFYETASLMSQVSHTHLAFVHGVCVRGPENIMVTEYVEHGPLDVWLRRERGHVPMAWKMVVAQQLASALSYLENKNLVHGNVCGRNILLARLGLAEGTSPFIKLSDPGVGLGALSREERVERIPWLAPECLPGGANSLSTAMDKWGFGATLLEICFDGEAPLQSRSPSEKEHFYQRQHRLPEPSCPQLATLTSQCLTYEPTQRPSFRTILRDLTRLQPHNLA

| SMILES | IC50 [1, 2] | Kd (TYK2 JH2; [4]) | other results |
| --- | --- | --- | --- |
| CNc1ncc(-c2nc3c(NC(C)=O)cccc3o2)c2cc(NC(=O)C3CC3)ncc12 [Example 444, N-(5-(4-acetamidobenzo[d]oxazol-2-yl)-8-(methylamino)-2,7-naphthyridin-3-yl)cyclopropanecarboxamide] | ≤ 500 nM | ≤ 100 nM | – |
| CNc1ncc(-c2nc3ccccc3s2)c2cc(NC(=O)C3CC3)ncc12 [Example 145, N-(5-(benzo[d]thiazol-2-yl)-8-(methylamino)-2,7-naphthyridin-3-yl)cyclopropanecarboxamide] | – | – | IC50 [1, 5]: ≤ 500 nM; Kd (TYK2 JH2; [6]): ≤ 100 nM |
| CNc1ncc(-c2nc3ccc(N4C[C@@H](C)O[C@@H](C)C4)cn3n2)c2cc(NC(=O)[C@@H]3C[C@@H]3F)ncc12 [Example 554, (1S,2S)—N-(5-(6-((2R,6S)-2,6-dimethylmorpholino)-[1,2,4]triazolo[1,5-a]pyridin-2-yl)-8-(methylamino)-2,7-naphthyridin-3-yl)-2-fluoracyclopropane-1-carboxamide] | – | ≤ 100 nM | IC50 ([1]; IFNa-stimulated, read-out: Cellular_THP1_IFNa-pSTATS_TYK2): ≤ 500 nM |
| CNc1ncc(-c2nc3ccc(N4CCOCC4)cn3n2)c2cc(Nc3ccc(C(F)(F)F)cn3)ncc12 [Example 1090, N1-methyl-4-(6-morpholino-[1,2,4]triazolo[1,5-a]pyridin-2-yl)-N6-[5-(trifluoromethyl)-2-pyridyl]-2,7-naphthyridine-1,6-diamine] | – | – | IC50 ([1]; Homo sapiens, IFNa-stimulated pSTAT5 (Tyr694/699), read-out: Cellular_THP1_IFNa-pSTATS_TYK2): > 500 nM; Kd (TYK2 JH2; [3]): ≤ 100 nM |
| [2H]C([2H])([2H])Nc1ncc(-c2nc3cc(OCC4CC4)ccc3o2)c2cc(NC(=O)[C@H]3C[C@H]3C)ncc12 [Example 456, (1S,2R)—N-(5-(5-(cyclopropylmethoxy)benzo[d]oxazol-2-yl)-8-((methyl-d3)amino)-2,7-naphthyridin-3-yl)-2-methylcyclopropane-1-carboxamide] | ≤ 500 nM | ≤ 100 nM | – |
| CNc1ncc(-c2ccc(C)s2)c2cc(NC(=O)C3CC3)ncc12 [Example 22, N-(8-(methylamino)-5-(5-methylthiophen-2-yl)-2,7-naphthyridin-3-yl)cyclopropanecarboxamide] | – | – | IC50 [1, 5]: > 500 nM; Kd (TYK2 JH2; [6]): ≤ 100 nM |
| CNc1ncc(-c2nc3ccc(N4CCOCC4)cn3n2)c2cc(Nc3ccc(C(C)(C)O)c(F)n3)ncc12 [Example 589, 2-(2-fluoro-6-((8-(methylamino)-5-(6-morpholino-[1,2,4]triazolo[1,5-a]pyridin-2-yl)-2,7-naphthyridin-3-yl)amino)pyridin-3-yl)propan-2-ol] | ≤ 500 nM | ≤ 100 nM | – |
| CNc1ncc(-c2conc2C)c2cc(NC(=O)C3CC3)ncc12 [Example 36, N-(8-(methylamino)-5-(3-methylisoxazol-4-yl)-2,7-naphthyridin-3-yl)cyclopropanecarboxamide] | – | – | IC50 [1, 5]: > 500 nM; Kd (TYK2 JH2; [6]): ≤ 100 nM |
| CNc1ncc(-c2nc3ccc(N4CCCC(F)(F)C4)cn3n2)c2cc(NC(=O)C3CC3)ncc12 [Example 485, N-(5-(6-(3,3-difluoropiperidin-1-yl)-[1,2,4]triazolo[1,5-a]pyridin-2-yl)-8-(methylamino)-2,7-naphthyridin-3-yl)cyclopropanecarboxamide] | ≤ 500 nM | ≤ 100 nM | – |
| CNc1ncc(-c2nc3ccc(N4CCOCC4)cn3n2)c2cc(NC(=O)C3CCC3)ncc12 [Example 528, N-(8-(methylamino)-5-(6-morpholino-[1,2,4]triazolo[1,5-a]pyridin-2-yl)-2,7-naphthyridin-3-yl)cyclobutanecarboxamide] | ≤ 500 nM | ≤ 100 nM | – |
| CNc1ncc(-c2nc(-c3ccccc3)co2)c2cc(NC(=O)C3CC3)ncc12 [Example 157, N-(8-(methylamino)-5-(4-phenyloxazol-2-yl)-2,7-naphthyridin-3-yl)cyclopropanecarboxamide] | – | – | IC50 [1, 5]: ≤ 500 nM; Kd (TYK2 JH2; [6]): ≤ 100 nM |
| [2H]C([2H])([2H])Nc1ncc(-c2nc3ccc(OC)cn3n2)c2cc(NC(=O)[C@@H]3C[C@@H]3F)ncc12 [Example 569, (1S,2S)-2-fluoro-N-(5-(6-methoxy-[1,2,4]triazolo[1,5-a]pyridin-2-yl)-8-((methyl-d3)amino)-2,7-naphthyridin-3-yl)cyclopropane-1-carboxamide] | ≤ 500 nM | ≤ 100 nM | – |
| CNc1ncc(-c2ccccc2OC)c2cc(NC(=O)C3CC3)ncc12 [Example 7, N-(5-(2-methoxyphenyl)-8-(methylamino)-2,7-naphthyridin-3-yl)cyclopropanecarboxamide] | – | – | IC50 [1, 5]: > 500 nM; Kd (TYK2 JH2; [6]): 100 to 1000 nM |
| CNc1ncc(-c2nc3cc(N4CCO[C@@H](C)C4)ccc3o2)c2cc(NC(=O)[C@@H]3C[C@@H]3F)ncc12 [Example 407, (1S,2S)-2-fluoro-N-(8-(methylamino)-5-(5-((S)-2-methylmorpholino)benzo[d]oxazol-2-yl)-2,7-naphthyridin-3-yl)cyclopropane-1-carboxamide] | ≤ 500 nM | ≤ 100 nM | – |
| CNc1ncc(-c2nc3c(N4CC(OC)C4)cccc3o2)c2cc(NC(=O)C3CC3)ncc12 [Example 221, N-(5-(4-(3-methoxyazetidin-1-yl)benzo[d]oxazol-2-yl)-8-(methylamino)-2,7-naphthyridin-3-yl)cyclopropanecarboxamide] | ≤ 500 nM | ≤ 100 nM | – |
| CNc1ncc(-c2nc3cc(OC)ccc3o2)c2cc(Nc3ccc(F)cn3)ncc12 [Example 374, N^6-(5-fluoropyridin-2-y1)-4-(5-methoxybenzo[d]oxazol-2-yl)-N^1-methyl-2,7-naphthyridine-1,6-diamine] | > 500 nM | ≤ 100 nM | – |
| CNc1ncc(-c2ccn3nc(N4CCC4)nc3c2)c2cc(NC(=O)C3CC3)ncc12 [Example 156, N-(5-(2-(azetidin-1-yl)-[1,2,4]triazolo[1,5-a]pyridin-7-yl)-8-(methylamino)-2,7-naphthyridin-3-yl)cyclopropanecarboxamide] | – | – | IC50 [1, 5]: > 500 nM; Kd (TYK2 JH2; [6]): ≤ 100 nM |
| CNc1ncc(-c2nc3cc(OC)ccn3n2)c2cc(NC(=O)C3CC3)ncc12 [Example 492, N-(5-(7-methoxy-[1,2,4]triazolo[1,5-a]pyridin-2-yl)-8-(methylamino)-2,7-naphthyridin-3-yl)cyclopropanecarboxamide] | ≤ 500 nM | ≤ 100 nM | – |
| CNc1ncc(-c2nc3ccccn3n2)c2cc(NC(=O)C3CC3)ncc12 [Example 155, N-(5-([1,2,4]triazolo[1,5-a]pyridin-2-yl)-8-(methylamino)-2,7-naphthyridin-3-yl)cyclopropanecarboxamide] | – | – | IC50 [1, 5]: ≤ 500 nM; Kd (TYK2 JH2; [6]): ≤ 100 nM |
| C[C@H]1CN(c2ccc3oc(-c4cnc(N)c5cnc(NC(=O)C6CC6)cc45)nc3c2)CCO1 [Example 368, (S)—N-(8-amino-5-(5-(2-methylmorpholino)benzo[d]oxazol-2-yl)-2,7-naphthyridin-3-yl)cyclopropanecarboxamide] | ≤ 500 nM | ≤ 100 nM | – |

The next lines start with results.

| IC50 [1, 2] | Kd (TYK2 JH2; [4]) | SMILES | other results |
| --- | --- | --- | --- |
| ≤ 500 nM | – | CNc1ncc(C#Cc2ccc(OC[C@@H]3COCCO3)cc2)c2cc(NC(=O)C3CC3)ncc12 [Example 768, (S)—N-(5-((4-((1,4-dioxan-2-yl)methoxy)phenyl)ethynyl)-8-(methylamino)-2,7-naphthyridin-3-yl)cyclopropanecarboxamide] | Kd (TYK2 JH2; [3]): ≤ 100 nM |
| ≤ 500 nM | – | CNc1ncc(C#Cc2ccc(OCF)cc2)c2cc(NC(=O)C3CC3)ncc12 [Example 656, N-(5-((4-(fluoromethoxy)phenyl)ethynyl)-8-(methylamino)-2,7-naphthyridin-3-yl)cyclopropanecarboxamide] | Kd (TYK2 JH2; [3]): ≤ 100 nM |
| > 500 nM | – | CCNc1ncc(-c2ccccc2)c2cc(NC(=O)C3CC3)ncc12 [Example 846, N-(8-(ethylamino)-5-phenyl-2,7-naphthyridin-3-yl)cyclopropanecarboxamide] | Kd (TYK2 JH2; [3]): ≤ 100 nM |
| ≤ 500 nM | – | CNc1ncc(/C=C/c2ccc3c(c2)OC[C@H](COC)O3)c2cc(NC(=O)C3CC3)ncc12 (single isomer, unassigned) [Example 790] | Kd (TYK2 JH2; [3]): ≤ 100 nM |
| ≤ 500 nM | – | CNc1ncc(C#Cc2ccc3nnn(C4CC4)c3c2)c2cc(NC(=O)C3CC3)ncc12 [Example 687, N-(5-((1-cyclopropyl-1H-benzo[d][1,2,3]triazol-6-yl)ethynyl)-8-(methylimino)-2,7-naphthyridin-3-yl)cyclopropanecarboxamide] | Kd (TYK2 JH2; [3]): ≤ 100 nM |
| ≤ 500 nM | – | CCNc1ncc(-c2cc3ccc(N4CCOCC4)cn3n2)c2cc(NC(=O)C3CC3)ncc12 [Example 876, N-(8-(ethylamino)-5-(6-morpholinopyrazolo[1,5-a]pyridin-2-yl)-2,7-naphthyridin-3-yl)cyclopropanecarboxamide] | Kd (TYK2 JH2; [3]): ≤ 100 nM |
| ≤ 500 nM | ≤ 100 nM | CNc1ncc(-c2nc3ccc(OCC(C)(C)C#N)cn3n2)c2cc(NC(=O)C3CC3)ncc12 [Example 498, N-(5-(6-(2-cyano-2-methylpropoxy)-[1,2,4]triazolo[1,5-a]pyridin-2-yl)-8-(methylamino)-2,7-naphthyridin-3-yl)cyclopropanecarboxamide] | – |
